Key:
Experiment in all cases: relative viability (nuclei count vs DMSO), 5 days (fraction); higher = more cells survive
Fedratinib + Crizotinib = compound: Cc1cnc(Nc2ccc(OCCN3CCCC3)cc2)nc1Nc1cccc(S(=O)(=O)NC(C)(C)C)c1 [Fedratinib] + C[C@@H](Oc1cc(-c2cnn(C3CCNCC3)c2)cnc1N)c1c(Cl)ccc(F)c1Cl [Crizotinib] (partner 1 µM)
Method in brief: (§1)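 Values are medians from duplicate plates. Each reflects relative viability, defined as the nuclei count of treated wells over that of vehicle wells. Lung cancer cell lines in 1536-well plates were pin-tool dosed one day after seeding with one drug alone or with a fixed anchor-drug dose plus five library-drug doses (not always all listed) in √10 steps, then fixed, stained and imaged at 4× after 5 days.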

Fedratinib + Decitabine = compound: Cc1cnc(Nc2ccc(OCCN3CCCC3)cc2)nc1Nc1cccc(S(=O)(=O)NC(C)(C)C)c1 [Fedratinib] + Nc1ncn([C@H]2C[C@H](O)[C@@H](CO)O2)c(=O)n1 [Decitabine] (partner 2 µM)
Method in brief: as §1

GW-2580 + Palbociclib = compound: COC1=CC=C(C=C1)COC2=C(C=C(C=C2)CC3=CN=C(N=C3N)N)OC [GW-2580] + CC(=O)c1c(C)c2cnc(Nc3ccc(N4CCNCC4)cn3)nc2n(C2CCCC2)c1=O [Palbociclib] (partner 0.5 µM)
Method in brief: as §1

GW-2580 + Bortezomib = compound: COC1=CC=C(C=C1)COC2=C(C=C(C=C2)CC3=CN=C(N=C3N)N)OC [GW-2580] + CC(C)C[C@H](NC(=O)[C@H](Cc1ccccc1)NC(=O)c1cnccn1)B(O)O [Bortezomib] (partner 0.002 µM)
Method in brief: as §1

GW-2580 + AZD7762 = compound: COC1=CC=C(C=C1)COC2=C(C=C(C=C2)CC3=CN=C(N=C3N)N)OC [GW-2580] + NC(=O)Nc1cc(-c2cccc(F)c2)sc1C(=O)N[C@H]1CCCNC1 [AZD7762] (partner 0.2 µM)
Method in brief: as §1

NCI-H1651
relative viability (Fedratinib + Crizotinib; first compound 0.1 µM): 0.931
relative viability (Fedratinib + Crizotinib; first compound 0.3162 µM): 0.875
relative viability (Fedratinib + Crizotinib; first compound 1 µM): 0.808
relative viability (Fedratinib + Decitabine; first compound 0.1 µM): 0.365
relative viability (Fedratinib + Decitabine; first compound 0.3162 µM): 0.629
relative viability (Fedratinib + Decitabine; first compound 1 µM): 0.618
relative viability (GW-2580 + Palbociclib; first compound 0.08 µM): 0.503
relative viability (GW-2580 + Palbociclib; first compound 0.8 µM): 0.594
relative viability (GW-2580 + Palbociclib; first compound 2.53 µM): 0.499
relative viability (GW-2580 + Palbociclib; first compound 8 µM): 0.557
relative viability (GW-2580 + Bortezomib; first compound 0.08 µM): 0.953
relative viability (GW-2580 + Bortezomib; first compound 0.8 µM): 1.08
relative viability (GW-2580 + Bortezomib; first compound 2.53 µM): 0.89
relative viability (GW-2580 + Bortezomib; first compound 8 µM): 0.942
relative viability (GW-2580 + AZD7762; first compound 0.08 µM): 0.452
relative viability (GW-2580 + AZD7762; first compound 0.8 µM): 0.53
relative viability (GW-2580 + AZD7762; first compound 2.53 µM): 0.535
relative viability (GW-2580 + AZD7762; first compound 8 µM): 0.455

NCI-H441
relative viability (Fedratinib + Crizotinib; first compound 0.1 µM): 0.65
relative viability (Fedratinib + Crizotinib; first compound 0.3162 µM): 0.623
relative viability (Fedratinib + Crizotinib; first compound 1 µM): 0.619
relative viability (Fedratinib + Decitabine; first compound 0.1 µM): 0.223
relative viability (Fedratinib + Decitabine; first compound 0.3162 µM): 0.218
relative viability (Fedratinib + Decitabine; first compound 1 µM): 0.233
relative viability (GW-2580 + Palbociclib; first compound 0.08 µM): 0.228
relative viability (GW-2580 + Palbociclib; first compound 0.8 µM): 0.212
relative viability (GW-2580 + Palbociclib; first compound 2.53 µM): 0.206
relative viability (GW-2580 + Palbociclib; first compound 8 µM): 0.2
relative viability (GW-2580 + Bortezomib; first compound 0.08 µM): 0.608
relative viability (GW-2580 + Bortezomib; first compound 0.8 µM): 0.254
relative viability (GW-2580 + Bortezomib; first compound 2.53 µM): 0.288
relative viability (GW-2580 + Bortezomib; first compound 8 µM): 1.13
relative viability (GW-2580 + AZD7762; first compound 0.08 µM): 1.13
relative viability (GW-2580 + AZD7762; first compound 0.8 µM): 1.26
relative viability (GW-2580 + AZD7762; first compound 2.53 µM): 1.06
relative viability (GW-2580 + AZD7762; first compound 8 µM): 1.08

LCLC-103H
relative viability (Fedratinib + Crizotinib; first compound 0.1 µM): 1.07
relative viability (Fedratinib + Crizotinib; first compound 0.3162 µM): 0.922
relative viability (Fedratinib + Crizotinib; first compound 1 µM): 1.01
relative viability (Fedratinib + Decitabine; first compound 0.1 µM): 0.725
relative viability (Fedratinib + Decitabine; first compound 0.3162 µM): 0.734
relative viability (Fedratinib + Decitabine; first compound 1 µM): 0.703
relative viability (GW-2580 + Palbociclib; first compound 0.08 µM): 0.51
relative viability (GW-2580 + Palbociclib; first compound 0.8 µM): 0.48
relative viability (GW-2580 + Palbociclib; first compound 2.53 µM): 0.459
relative viability (GW-2580 + Palbociclib; first compound 8 µM): 0.493
relative viability (GW-2580 + Bortezomib; first compound 0.08 µM): 1.28
relative viability (GW-2580 + Bortezomib; first compound 0.8 µM): 1.11
relative viability (GW-2580 + Bortezomib; first compound 2.53 µM): 1.03
relative viability (GW-2580 + Bortezomib; first compound 8 µM): 0.96
relative viability (GW-2580 + AZD7762; first compound 0.08 µM): 0.884
relative viability (GW-2580 + AZD7762; first compound 0.8 µM): 0.838
relative viability (GW-2580 + AZD7762; first compound 2.53 µM): 0.648
relative viability (GW-2580 + AZD7762; first compound 8 µM): 0.716

LCLC-97TM1
relative viability (Fedratinib + Crizotinib; first compound 0.1 µM): 0.353
relative viability (Fedratinib + Crizotinib; first compound 0.3162 µM): 0.24
relative viability (Fedratinib + Crizotinib; first compound 1 µM): 0.334
relative viability (Fedratinib + Decitabine; first compound 0.1 µM): 0.273
relative viability (Fedratinib + Decitabine; first compound 0.3162 µM): 0.255
relative viability (Fedratinib + Decitabine; first compound 1 µM): 0.214
relative viability (GW-2580 + Palbociclib; first compound 0.08 µM): 0.214
relative viability (GW-2580 + Palbociclib; first compound 0.8 µM): 0.308
relative viability (GW-2580 + Palbociclib; first compound 2.53 µM): 0.199
relative viability (GW-2580 + Palbociclib; first compound 8 µM): 0.221
relative viability (GW-2580 + Bortezomib; first compound 0.08 µM): 0.404
relative viability (GW-2580 + Bortezomib; first compound 0.8 µM): 1.02
relative viability (GW-2580 + Bortezomib; first compound 2.53 µM): 0.288
relative viability (GW-2580 + Bortezomib; first compound 8 µM): 0.982
relative viability (GW-2580 + AZD7762; first compound 0.08 µM): 0.2
relative viability (GW-2580 + AZD7762; first compound 0.8 µM): 0.285
relative viability (GW-2580 + AZD7762; first compound 2.53 µM): 0.281
relative viability (GW-2580 + AZD7762; first compound 8 µM): 0.212

NCI-H727
relative viability (Fedratinib + Crizotinib; first compound 0.1 µM): 0.791
relative viability (Fedratinib + Crizotinib; first compound 0.3162 µM): 0.688
relative viability (Fedratinib + Crizotinib; first compound 1 µM): 0.661
relative viability (Fedratinib + Decitabine; first compound 0.1 µM): 0.864
relative viability (Fedratinib + Decitabine; first compound 0.3162 µM): 0.792
relative viability (Fedratinib + Decitabine; first compound 1 µM): 0.874
relative viability (GW-2580 + Palbociclib; first compound 0.08 µM): 0.576
relative viability (GW-2580 + Palbociclib; first compound 0.8 µM): 0.625
relative viability (GW-2580 + Palbociclib; first compound 2.53 µM): 0.606
relative viability (GW-2580 + Palbociclib; first compound 8 µM): 0.54
relative viability (GW-2580 + Bortezomib; first compound 0.08 µM): 1.01
relative viability (GW-2580 + Bortezomib; first compound 0.8 µM): 1.18
relative viability (GW-2580 + Bortezomib; first compound 2.53 µM): 1.35
relative viability (GW-2580 + Bortezomib; first compound 8 µM): 0.835
relative viability (GW-2580 + AZD7762; first compound 0.08 µM): 0.461
relative viability (GW-2580 + AZD7762; first compound 0.8 µM): 0.732
relative viability (GW-2580 + AZD7762; first compound 2.53 µM): 0.576
relative viability (GW-2580 + AZD7762; first compound 8 µM): 0.432

NCI-H1355
relative viability (Fedratinib + Crizotinib; first compound 0.1 µM): 1.06
relative viability (Fedratinib + Crizotinib; first compound 0.3162 µM): 1.04
relative viability (Fedratinib + Crizotinib; first compound 1 µM): 1.07
relative viability (Fedratinib + Decitabine; first compound 0.1 µM): 0.344
relative viability (Fedratinib + Decitabine; first compound 0.3162 µM): 0.353
relative viability (Fedratinib + Decitabine; first compound 1 µM): 0.356
relative viability (GW-2580 + Palbociclib; first compound 0.08 µM): 0.407
relative viability (GW-2580 + Palbociclib; first compound 0.8 µM): 0.439
relative viability (GW-2580 + Palbociclib; first compound 2.53 µM): 0.337
relative viability (GW-2580 + Palbociclib; first compound 8 µM): 0.322
relative viability (GW-2580 + Bortezomib; first compound 0.08 µM): 1.24
relative viability (GW-2580 + Bortezomib; first compound 0.8 µM): 1.38
relative viability (GW-2580 + Bortezomib; first compound 2.53 µM): 1.06
relative viability (GW-2580 + Bortezomib; first compound 8 µM): 1.16
relative viability (GW-2580 + AZD7762; first compound 0.08 µM): 0.807
relative viability (GW-2580 + AZD7762; first compound 0.8 µM): 0.767
relative viability (GW-2580 + AZD7762; first compound 2.53 µM): 0.566
relative viability (GW-2580 + AZD7762; first compound 8 µM): 0.676

HOP-62
relative viability (Fedratinib + Crizotinib; first compound 0.1 µM): 0.786
relative viability (Fedratinib + Crizotinib; first compound 0.3162 µM): 0.891
relative viability (Fedratinib + Crizotinib; first compound 1 µM): 0.784
relative viability (Fedratinib + Decitabine; first compound 0.1 µM): 0.224
relative viability (Fedratinib + Decitabine; first compound 0.3162 µM): 0.172
relative viability (Fedratinib + Decitabine; first compound 1 µM): 0.202
relative viability (GW-2580 + Palbociclib; first compound 0.08 µM): 0.584
relative viability (GW-2580 + Palbociclib; first compound 0.8 µM): 0.438
relative viability (GW-2580 + Palbociclib; first compound 2.53 µM): 0.481
relative viability (GW-2580 + Palbociclib; first compound 8 µM): 0.515
relative viability (GW-2580 + Bortezomib; first compound 0.08 µM): 1.13
relative viability (GW-2580 + Bortezomib; first compound 0.8 µM): 0.861
relative viability (GW-2580 + Bortezomib; first compound 2.53 µM): 0.406
relative viability (GW-2580 + Bortezomib; first compound 8 µM): 0.727
relative viability (GW-2580 + AZD7762; first compound 0.08 µM): 0.664
relative viability (GW-2580 + AZD7762; first compound 0.8 µM): 0.74
relative viability (GW-2580 + AZD7762; first compound 2.53 µM): 0.571
relative viability (GW-2580 + AZD7762; first compound 8 µM): 0.424

NCI-H2085
relative viability (Fedratinib + Crizotinib; first compound 0.1 µM): 0.769
relative viability (Fedratinib + Crizotinib; first compound 0.3162 µM): 0.953
relative viability (Fedratinib + Crizotinib; first compound 1 µM): 0.812
relative viability (Fedratinib + Decitabine; first compound 0.1 µM): 0.53
relative viability (Fedratinib + Decitabine; first compound 0.3162 µM): 0.563
relative viability (Fedratinib + Decitabine; first compound 1 µM): 0.518
relative viability (GW-2580 + Palbociclib; first compound 0.08 µM): 0.507
relative viability (GW-2580 + Palbociclib; first compound 0.8 µM): 0.467
relative viability (GW-2580 + Palbociclib; first compound 2.53 µM): 0.462
relative viability (GW-2580 + Palbociclib; first compound 8 µM): 0.438
relative viability (GW-2580 + Bortezomib; first compound 0.08 µM): 1.11
relative viability (GW-2580 + Bortezomib; first compound 0.8 µM): 1.12
relative viability (GW-2580 + Bortezomib; first compound 2.53 µM): 1.19
relative viability (GW-2580 + Bortezomib; first compound 8 µM): 1.03
relative viability (GW-2580 + AZD7762; first compound 0.08 µM): 1.14
relative viability (GW-2580 + AZD7762; first compound 0.8 µM): 1.14
relative viability (GW-2580 + AZD7762; first compound 2.53 µM): 0.989
relative viability (GW-2580 + AZD7762; first compound 8 µM): 0.919

Source: the supplement of paper PMC10307832
